From ChEMBL document CHEMBL4350974, “Synthesis and biological evaluation of methylpyrimidine-fused tricyclic diterpene analogs as novel oral anti-late-onset hypogonadism agents” (Eur J Med Chem, 2019)
The source made the active and inactive calls. The calls are words filed in the database; no cut-off is given here.

Columns and labels:
TM3 = experiment: Induction of testosterone production in mouse TM3 cells assessed as increase in testosterone level at 20 uM measured after 24 hrs by ELISA relative to control; type: functional
[1] = Cytotoxicity against mouse TM3 cells assessed as reduction in cell viability measured after 24 hrs by sulforhodamine B assay; type: cell-based
Rattus norvegicus [2] = experiment: Anti late-onset hypogonadism activity in cyclophosphamide-induced Sprague-Dawley rat model of partial androgen deficiency assessed as inhibition of Leydig cells apoptosis at 10 mg/kg, sc administered for every 3 days up to 4 weeks by DAPI staining based TUNEL assay; type: functional, organism-based
Rattus norvegicus [3] = experiment: Anti late-onset hypogonadism activity in cyclophosphamide-induced Sprague-Dawley rat model of partial androgen deficiency assessed as weight of testis at 10 mg/kg, sc administered for every 3 days for 4 weeks (reference value: 1.47 +/- 0.13 g); type: functional
Rattus norvegicus [4] = experiment: Anti late-onset hypogonadism activity in cyclophosphamide-induced Sprague-Dawley rat model of partial androgen deficiency assessed as increase in serum total testosterone level at 10 mg/kg, sc administered for every 3 days up to 4 weeks and measured every 2 weeks by ELISA; type: functional, organism-based
Rattus norvegicus [5] = experiment: Anti late-onset hypogonadism activity in cyclophosphamide-induced Sprague-Dawley rat model of partial androgen deficiency assessed as intratesticular testosterone level at 10 mg/kg, sc administered for every 3 days up to 4 weeks ELISA (reference value: 137.99 +/- 19.27 nmol/L); type: functional
[6] = Toxicity in cyclophosphamide - induced Sprague-Dawley rat model of partial androgen deficiency assessed as sperm viability by semen analysis (reference value: 95.1 +/- 3.2 %)
Rattus norvegicus [7] = species: Rattus norvegicus; experiment: Potency index, ratio of test compound effect to testosterone effect for anti late-onset hypogonadism activity in cyclophosphamide-induced Sprague-Dawley rat model of partial androgen deficiency assessed as inhibition of Leydig cells apoptosis; type: functional
Rattus norvegicus [8] = experiment: Anti late-onset hypogonadism activity in cyclophosphamide-induced Sprague-Dawley rat model of partial androgen deficiency assessed as increase in free testosterone level at 10 mg/kg, sc administered for every 3 days up to 4 weeks and measured every 2 weeks by ELISA; type: functional, organism-based
Rattus norvegicus [9] = experiment: Anti late-onset hypogonadism activity in cyclophosphamide-induced Sprague-Dawley rat model of partial androgen deficiency assessed as weight of seminal vesicles at 10 mg/kg, sc administered for every 3 days for 4 weeks Rvb = 1.33 +/- 0.26 g); type: functional
[10] = Toxicity in cyclophosphamide - induced Sprague-Dawley rat model of partial androgen deficiency assessed as sperm motility by semen analysis (reference value: 88.3 +/- 7.3 %); settings: in vivo
[11] = Toxicity in cyclophosphamide-induced Sprague-Dawley rat model of partial androgen deficiency assessed as decrease in body weight at 10 mg/kg, sc administered for every 3 days up to 4 weeks and measured every 3 days; type: organism-based; settings: in vivo

Cc1ncc2c(n1)C(C)(C)C1CCc3ccc(OC(C)C)cc3[C@@]1(C)C2 (mixture of isomers) gave an Activity (TM3) of 129.3%.

In the case of C#CCNC(=O)c1cc2c(cc1OC)[C@@]1(C)Cc3cnc(C)nc3C(C)(C)C1CC2 (mixture of isomers), the Activity (TM3) is reported as 118.1%.

Work on COc1ccc2c(c1)[C@@]1(C)Cc3c[nH]nc3C(C)(C)C1CC2 (some centres not stated) yielded an Activity (TM3) of 116.6% and a CC50 at 24 h [1] of under 50 µM.

Compound Cc1ncc2c(n1)C(C)(C)C1CCc3ccc(OCc4ccccc4)cc3[C@@]1(C)C2 (mixture of isomers) has an Activity (TM3) of 133%.

CCCCNC(=O)c1cc2c(cc1OC)[C@@]1(C)Cc3cnc(C)nc3C(C)(C)C1CC2 (mixture of isomers) showed an Activity (TM3) of 166.9% and a CC50 at 24 h [1] of under 50 µM.

In the case of COc1ccc2c(c1)[C@@]1(C)Cc3cnc(C)nc3C(C)(C)C1CC2=O (mixture of isomers), the Activity (TM3) is reported as 109.9%.

Work on COc1cc2c(cc1C(=O)NO)CCC1C(C)(C)c3nc(C)ncc3C[C@]21C (mixture of isomers) yielded an Activity (TM3) of 189.5% and a CC50 at 24 h [1] of 82.2 µM.

COc1ccc2c(c1)[C@@]1(C)Cc3sc(N)nc3C(C)(C)C1CC2 (some centres not stated) gave an Activity (TM3) of 110.9% and a CC50 at 24 h [1] of under 50 µM.

With COc1ccc2c(c1)[C@@]1(C)Cc3nccnc3C(C)(C)C1CC2 (some centres not stated) the Activity (TM3) was 134% and the CC50 at 24 h [1] was 71.3 µM.

Compound COc1cc2c(cc1C(=O)NCc1cccc(Cl)c1)CCC1C(C)(C)c3nc(C)ncc3C[C@]21C (mixture of isomers) has an Activity (TM3) of 164.2% and a CC50 at 24 h [1] of under 50 µM.

Work on COc1ccc(-c2oc3c(CC=C(C)C)c(O[C@@H]4O[C@H](CO)[C@@H](O)[C@H](O)[C@H]4O)cc(O)c3c(=O)c2O[C@@H]2O[C@@H](C)[C@H](O)[C@@H](O)[C@H]2O)cc1 [ICARIIN] yielded an Activity (TM3) of 139.6% and a CC50 at 24 h [1] of over 200 µM.

CCOC(=O)c1[nH]nc2c1C[C@]1(C)c3cc(OC)ccc3CCC1C2(C)C (some centres not stated) showed an Activity (TM3) of 160.9% and a CC50 at 24 h [1] of under 50 µM.

In the case of C[C@]12CC[C@H]3[C@@H](CCC4=CC(=O)CC[C@@]43C)[C@@H]1CC[C@@H]2O [TESTOSTERONE], the inhibition (Rattus norvegicus [2]) is reported as “Active”, the Activity (Rattus norvegicus [3]) is reported as 1.53 g and the Activity (Rattus norvegicus [4]) is reported as “Active”. It also gave an Activity (Rattus norvegicus [5]) of 145.38 nmol/L, an Activity [6] of 88.8% and a Ratio (Rattus norvegicus [7]) of 2. For the same compound, the Activity (Rattus norvegicus [8]) was “Active”, the Activity (Rattus norvegicus [9]) was 1.64 g and the Activity [10] was 79.8%. For the same compound, the Activity [11] was “Non-Toxic”.

Compound COc1cccc(NC(=O)c2cc3c(cc2OC)[C@@]2(C)Cc4cnc(C)nc4C(C)(C)C2CC3)c1 (mixture of isomers) has an Activity (TM3) of 173.6% and a CC50 at 24 h [1] of under 50 µM.

COc1cc2c(cc1C(=O)Nc1ncco1)CCC1C(C)(C)c3nc(C)ncc3C[C@]21C (mixture of isomers) gave an Activity (TM3) of 176.9% and a CC50 at 24 h [1] of under 50 µM.

In the case of CCc1ccc(NC(=O)c2cc3c(cc2OC)[C@@]2(C)Cc4cnc(C)nc4C(C)(C)C2CC3)cc1 (mixture of isomers), the Activity (TM3) is reported as 167.8% and the CC50 at 24 h [1] is reported as under 50 µM.

With CCCNC(=O)c1cc2c(cc1OC)[C@@]1(C)Cc3cnc(C)nc3C(C)(C)C1CC2 (mixture of isomers) the Activity (TM3) was 140.9%.

COc1cc2c(cc1NC(C)=O)CCC1C(C)(C)c3nc(C)ncc3C[C@]21C (mixture of isomers) gave an Activity (TM3) of 157.6% and a CC50 at 24 h [1] of over 200 µM.

With C#CCOc1ccc2c(c1)[C@@]1(C)Cc3cnc(C)nc3C(C)(C)C1CC2 (mixture of isomers) the Activity (TM3) was 120.5%.

For CCNC(=O)c1cc2c(cc1OC)[C@@]1(C)Cc3cnc(C)nc3C(C)(C)C1CC2 (mixture of isomers), the Activity (TM3) was 141.3%.

Compound COc1cc2c(cc1C(=O)O)CCC1C(C)(C)c3nc(C)ncc3C[C@]21C (mixture of isomers) has an Activity (TM3) of 121.2%.

Work on C=CCOc1ccc2c(c1)[C@@]1(C)Cc3cnc(C)nc3C(C)(C)C1CC2 (mixture of isomers) yielded an Activity (TM3) of 142%.

With COc1cc2c(cc1C(=O)NN)CCC1C(C)(C)c3nc(C)ncc3C[C@]21C (mixture of isomers) the Activity (TM3) was 130% and the CC50 at 24 h [1] was over 200 µM.

Work on COc1ccc2c(c1)[C@@]1(C)Cc3cnc(C)nc3C(C)(C)C1C/C2=N/O (mixture of isomers) yielded an Activity (TM3) of 128.5%.

COc1cc2c(cc1C(N)=O)CCC1C(C)(C)c3nc(C)ncc3C[C@]21C (mixture of isomers) gave an Activity (TM3) of 169.8% and a CC50 at 24 h [1] of over 200 µM.

COc1cc2c(cc1C(=O)N(C)C)CCC1C(C)(C)c3nc(C)ncc3C[C@]21C (mixture of isomers) showed an Activity (TM3) of 133.1% and a CC50 at 24 h [1] of over 200 µM.

Compound CNCc1cc2c(cc1OC)[C@@]1(C)Cc3cnc(C)nc3C(C)(C)C1CC2 (mixture of isomers) has an Activity (TM3) of 176.6% and a CC50 at 24 h [1] of 124 µM.

Cc1ncc2c(n1)C(C)(C)C1CCc3ccc(OCc4cccc([N+](=O)[O-])c4)cc3[C@@]1(C)C2 (mixture of isomers) gave an Activity (TM3) of 122.4%.

C=CCNC(=O)c1cc2c(cc1OC)[C@@]1(C)Cc3cnc(C)nc3C(C)(C)C1CC2 (mixture of isomers) showed an Activity (TM3) of 142.9%.

For COc1ccc2c(c1)[C@@]1(C)Cc3cnc(C)nc3C(C)(C)C1C=C2 (mixture of isomers), the Activity (TM3) was 129.8%.

COc1cc2c(cc1C(=O)NC1CCCC1)CCC1C(C)(C)c3nc(C)ncc3C[C@]21C (mixture of isomers) showed an Activity (TM3) of 122.4%.

Compound COc1ccc2c(c1)[C@@]1(C)Cc3cnc(C)nc3C(C)(C)C1CC2 (mixture of isomers) has an Activity (TM3) of 145% and a CC50 at 24 h [1] of 151 µM.

With COc1ccc2c(c1)[C@@]1(C)Cc3c([nH]c4ccccc34)C(C)(C)C1CC2 (some centres not stated) the Activity (TM3) was 183.4% and the CC50 at 24 h [1] was under 50 µM.

COc1cc2c(cc1C(=O)N1CCc3ccccc31)CCC1C(C)(C)c3nc(C)ncc3C[C@]21C (mixture of isomers) gave an Activity (TM3) of 116.9%.

Work on COc1cc2c(cc1N)CCC1C(C)(C)c3nc(C)ncc3C[C@]21C.Cl (mixture of isomers) yielded an Activity (TM3) of 146.6% and a CC50 at 24 h [1] of 127 µM.

COc1cc2c(cc1Br)CCC1C(C)(C)c3nc(C)ncc3C[C@]21C (mixture of isomers) gave an Activity (TM3) of 119.2%.

Work on COc1ccc2c(c1)[C@@]1(C)Cc3c(n[nH]c3C(=O)O)C(C)(C)C1CC2 (some centres not stated) yielded an Activity (TM3) of 128.2% and a CC50 at 24 h [1] of over 200 µM.

Work on CCCCCNC(=O)c1cc2c(cc1OC)[C@@]1(C)Cc3cnc(C)nc3C(C)(C)C1CC2 (mixture of isomers) yielded an Activity (TM3) of 171.9% and a CC50 at 24 h [1] of under 50 µM.

CCCOc1ccc2c(c1)[C@@]1(C)Cc3cnc(C)nc3C(C)(C)C1CC2 (mixture of isomers) gave an Activity (TM3) of 113.2%.

In the case of COc1cc2c(cc1C(=O)NN1CCCCC1)CCC1C(C)(C)c3nc(C)ncc3C[C@]21C (mixture of isomers), the Activity (TM3) is reported as 111.5%.

In the case of COc1cc2c(cc1C(=O)Nc1nccs1)CCC1C(C)(C)c3nc(C)ncc3C[C@]21C (mixture of isomers), the Activity (TM3) is reported as 134.1%.

In the case of Cc1ncc2c(n1)C(C)(C)C1CCc3ccc(O)cc3[C@@]1(C)C2 (mixture of isomers), the Activity (TM3) is reported as 124.4%.

For COc1cc2c(cc1C(=O)Nc1ccccc1)CCC1C(C)(C)c3nc(C)ncc3C[C@]21C (mixture of isomers), the Activity (TM3) was 156.8% and the CC50 at 24 h [1] was under 50 µM.

With COc1cc2c(cc1C(=O)NCC(C)C)CCC1C(C)(C)c3nc(C)ncc3C[C@]21C (mixture of isomers) the Activity (TM3) was 114.7%.

COc1cc2c(cc1C(=O)Nc1ccc3[nH]ncc3c1)CCC1C(C)(C)c3nc(C)ncc3C[C@]21C (mixture of isomers) gave an Activity (TM3) of 181.5% and a CC50 at 24 h [1] of under 50 µM.
